Measurements reported in patent US20110039847A1, “AMIDE DERIVATIVES AS SIRTUIN MODULATORS” (Sirtris Pharmaceuticals, Inc, priority 2007, published 2011).

Biological target: T1, SIRT1 (Homo sapiens, UniProt Q96EB6)
T1 sequence (Q96EB6 1-747): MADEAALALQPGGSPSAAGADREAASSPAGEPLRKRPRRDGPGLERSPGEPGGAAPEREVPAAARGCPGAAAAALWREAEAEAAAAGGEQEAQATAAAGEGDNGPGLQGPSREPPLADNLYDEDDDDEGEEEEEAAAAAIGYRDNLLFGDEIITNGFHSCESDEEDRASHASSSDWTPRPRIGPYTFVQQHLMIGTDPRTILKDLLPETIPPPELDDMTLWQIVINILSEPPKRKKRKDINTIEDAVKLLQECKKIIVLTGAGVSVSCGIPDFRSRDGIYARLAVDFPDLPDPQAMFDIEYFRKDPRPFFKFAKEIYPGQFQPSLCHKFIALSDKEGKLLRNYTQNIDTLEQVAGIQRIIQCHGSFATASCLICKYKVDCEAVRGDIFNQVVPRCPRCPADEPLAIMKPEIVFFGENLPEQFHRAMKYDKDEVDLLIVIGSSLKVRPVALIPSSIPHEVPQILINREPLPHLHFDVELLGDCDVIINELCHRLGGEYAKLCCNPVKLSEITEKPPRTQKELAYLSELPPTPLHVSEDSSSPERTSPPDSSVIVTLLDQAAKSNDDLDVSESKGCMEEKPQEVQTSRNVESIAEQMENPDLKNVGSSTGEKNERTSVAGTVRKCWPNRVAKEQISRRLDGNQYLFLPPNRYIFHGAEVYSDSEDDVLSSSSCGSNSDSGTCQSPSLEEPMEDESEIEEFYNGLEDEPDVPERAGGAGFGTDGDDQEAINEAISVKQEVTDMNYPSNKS
Test: Mass spectrometry based SIRT1 deacetylation (activation) assay
Assay type: biochemical
Details: 0.5 μM peptide substrate, 120 μM βNAD+, 10 nM SIRT1, 25 min at 25° C.; for Emax: 25 min, read-out: % Fold Act. (percent maximum fold activation)
From the text: A mass spectrometry based assay was used to identify modulators of SIRT1 activity. The mass spectrometry based assay utilizes a peptide having 20 amino acid residues as follows: Ac-EE-K(biotin)-GQSTSSHSK(Ac)NleSTEG-K(5TMR)-EE-NH2 (SEQ ID NO: 1) wherein K(Ac) is an acetylated lysine residue and Nle is a norleucine. The peptide is labeled with the fluorophore 5TMR (excitation 540 nm/emission 580 nm) at the C-terminus. The sequence of the peptide substrate is based on p53 with several modifications. In addition, the methionine residue naturally present in the sequence was replaced with the norleucine because the methionine may be susceptible to oxidation during synthesis and purification.
The mass spectrometry assay is conducted as follows: 0.5 μM peptide substrate and 120 μM βNAD^+ is incubated with 10 nM SIRT1 for 25 minutes at 25° C. in a reaction buffer (50 mM Tris-acetate pH 8, 137 mM NaCl, 2.7 mM KCl, 1 mM MgCl2, 5 mM DTT, 0.05% BSA). Test compounds may be added to the reaction as described above. […] After the 25 minute incubation with SIRT1, 10 μL of 10% formic acid is added to stop the reaction. Reactions are sealed and frozen for later mass spec analysis. Determination of the mass of the substrate peptide allows for precise determination of the degree of acetylation (i.e. starting material) as compared to deacetylated peptide (product).
A control for inhibition of sirtuin activity is conducted by adding 1 μL of 500 mM nicotinamide as a negative control at the start of the reaction (e.g., permits determination of maximum sirtuin inhibition). A control for activation of sirtuin activity is conducted using 10 nM of sirtuin protein, with 1 μL of DMSO in place of compound, to determine the amount of deacetylation of the substrate at a given timepoint within the linear range of the assay. This timepoint is the same as that used for test compounds and, within the linear range, the endpoint represents a change in velocity.
For the above assay, SIRT1 protein was expressed and purified as follows. […] The protein was expressed by induction with 1 mM IPTG as an N-terminal His-tag fusion protein at 18° C. overnight and harvested at 30,000×g. Cells were lysed with lysozyme in lysis buffer (50 mM Tris-HCl, 2 mM Tris[2-carboxyethyl]phosphine (TCEP), 10 μM ZnCl2, 200 mM NaCl) and further treated with sonication for 10 min for complete lysis. The protein was purified over a Ni-NTA column (Amersham) and fractions containing pure protein were pooled, concentrated and run over a sizing column (Sephadex S200 26/60 global). The peak containing soluble protein was collected and run on an Ion-exchange column (MonoQ). Gradient elution (200 mM-500 mM NaCl) yielded pure protein. This protein was concentrated and dialyzed against dialysis buffer (20 mM Tris-HCl, 2 mM TCEP) overnight. The protein was aliquoted and frozen at −80° C. until further use.

| SMILES | EC1.5 | Emax |
| --- | --- | --- |
| CN(C)CCNc1cc(C(=O)Nc2ccccc2-c2nnc(C3CCC3)s2)nc(-c2ccccc2)n1 [Compound 48] | B (EC1.5>1 and ≦10 uM) | 150 to 300% |
| CC(C)(C)c1cnc(-c2ccccc2NC(=O)c2cc(N3CCOCC3)cc(-c3ccccc3)n2)o1 [Compound 70] | A (EC1.5≦1 uM) | 150 to 300% |
| CN(C)CCNc1cc(C(=O)Nc2ccccc2-c2ccccc2)nc(-c2ccccc2)n1 [Compound 2] | C (EC1.5>10 uM) | < 150% |
| CN(C)CCN(C)c1cc(C(=O)Nc2ccccc2-c2nnc(C3CCC3)s2)nc(-c2ccccc2)n1 [Compound 45] | A (EC1.5≦1 uM) | 150 to 300% |
| CCN(CCN(C)C)c1cc(C(=O)Nc2ccccc2-c2ncc(C(C)(C)C)s2)nc(-c2ccccc2)c1 [Compound 42] | A (EC1.5≦1 uM) | 150 to 300% |
| CCc1nnc(-c2ccccc2NC(=O)c2cc(NCCN(C)C)nc(-c3ccccc3)n2)s1 [Compound 53] | B (EC1.5>1 and ≦10 uM) | 150 to 300% |
| CC(C)c1nnc(-c2ccccc2NC(=O)c2cc(NCCN(C)C)nc(-c3ccccc3)n2)s1 [Compound 72] | A (EC1.5≦1 uM) | ≥ 300% |
| CCN(CCN(C)C)c1cc(C(=O)Nc2ccccc2-c2cnc(-c3ccccc3)[nH]2)nc(-c2ccccc2)n1 [Compound 68] | A (EC1.5≦1 uM) | ≥ 300% |
| CCc1nnc(-c2ccccc2NC(=O)c2cc(N(C)CCN(C)C)nc(-c3ccccc3)n2)s1 [Compound 56] | B (EC1.5>1 and ≦10 uM) | 150 to 300% |
| CCN(CCN(C)C)c1cc(C(=O)Nc2ccccc2-c2nnc(C3CCCC3)s2)nc(-c2ccccc2)n1 [Compound 50] | B (EC1.5>1 and ≦10 uM) | 150 to 300% |
| CCN(CCN(C)C)c1cc(C(=O)Nc2ccccc2-c2nnc(-c3ccccc3)s2)nc(-c2ccccc2)n1 [Compound 36] | A (EC1.5≦1 uM) | 150 to 300% |
| O=C(Nc1ccccc1-c1ncc(-c2ccccc2)s1)c1cc(NCCN2CCCCC2)nc(-c2ccccc2)n1 [Compound 17] | A (EC1.5≦1 uM) | 150 to 300% |
| CN(C)CCNc1cc(C(=O)Nc2ccccc2-c2ncc(-c3ccccc3)o2)nc(-c2ccccc2)n1 [Compound 38] | A (EC1.5≦1 uM) | 150 to 300% |
| Cc1cnc(-c2ccccc2NC(=O)c2cc(NCCN(C)C)nc(-c3ccccc3)n2)o1 [Compound 23] | B (EC1.5>1 and ≦10 uM) | ≥ 300% |

Further lines, results first:

| EC1.5 | Emax | SMILES |
| --- | --- | --- |
| A (EC1.5≦1 uM) | 150 to 300% | CCN1CCN(c2cc(C(=O)Nc3ccccc3-c3nnc(C4CCOCC4)s3)nc(-c3ccccc3)n2)CC1=O [Compound 94, 6-(4-ethyl-3-oxopiperazin-1-yl)-2-phenyl-N-(2-(5-(tetrahydro-2H-pyran-4-yl)-1,3,4-thiadiazol-2-yl)phenyl)pyrimidine-4-carboxamide] |
| A (EC1.5≦1 uM) | ≥ 300% | CCN(CCN(C)C)c1cc(C(=O)Nc2ccccc2-c2nnc(C3CCOC3)s2)nc(-c2ccccc2)n1 (stereo not shown) [Compound 97, 6-((2-(dimethylamino)ethyl)(ethyl)amino)-2-phenyl-N-(2-(5-(tetrahydrofuran-3-yl)-1,3,4-thiadiazol-2-yl)phenyl)pyrimidine-4-carboxamide] |
| B (EC1.5>1 and ≦10 uM) | ≥ 300% | CCN(CCN(C)C)c1cc(C(=O)Nc2ccccc2C(=O)NC2CCN(C(=O)OC(C)(C)C)C2)nc(-c2ccccc2)n1 (stereo not shown) [Compound 173, tert-butyl 3-(2-(6-((2-(dimethylamino)ethyl)(ethyl)amino)-2-phenylpyrimidine-4-carboxamido)benzamido)pyrrolidine-1-carboxylate] |
| B (EC1.5>1 and ≦10 uM) | ≥ 300% | CC(C)(C)c1cnc(-c2ccccc2NC(=O)c2cc(OC[C@@H](O)CO)cc(-c3ccccc3)n2)o1 [Compound 76] |
| B (EC1.5>1 and ≦10 uM) | 150 to 300% | CN(C)CCNc1cc(C(=O)Nc2ccccc2C(=O)NCC[S+](C)[O-])nc(-c2ccccc2)n1 (stereo not shown) [Compound 152, 6-(2-(dimethylamino)ethylamino)-N-(2-(2-(methylsulfinyl)ethylcarbamoyl)phenyl)-2-phenylpyrimidine-4-carboxamide] |
| C (EC1.5>10 uM) | < 150% | CCCCNC(=O)c1ccccc1NC(=O)c1cc(NCCN(C)C)nc(-c2ccccc2)n1 [Compound 123, N-(2-(butylcarbamoyl)phenyl)-6-(2-(dimethylamino)ethylamino)-2-phenylpyrimidine-4-carboxamide] |
| B (EC1.5>1 and ≦10 uM) | ≥ 300% | CCN(CCN(C)C)c1cc(C(=O)Nc2ccccc2C(=O)NC2CCCC2)nc(-c2ccccc2)n1 [Compound 169, N-(2-(cyclopentylcarbamoyl)phenyl)-6-((2-(dimethylamino)ethyl)(ethyl)amino)-2-phenylpyrimidine-4-carboxamide] |
| A (EC1.5≦1 uM) | ≥ 300% | CCN(CCN(C)C)c1cc(C(=O)Nc2ccccc2-c2nnc(N3CCOCC3)s2)nc(-c2ccccc2)n1 [Compound 105] |
| A (EC1.5≦1 uM) | 150 to 300% | Cc1ccc(NC(=O)c2ccccc2NC(=O)c2cc(NCCN(C)C)nc(-c3ccccc3)n2)cc1 [Compound 144, 6-(2-(dimethylamino)ethylamino)-2-phenyl-N-(2-(p-tolylcarbamoyl)phenyl)pyrimidine-4-carboxamide] |
| A (EC1.5≦1 uM) | ≥ 300% | O=C(Nc1ccccc1-c1nncs1)c1cc(OC[C@@H](O)CO)nc(-c2ccccc2)n1 [Compound 110] |
| B (EC1.5>1 and ≦10 uM) | 150 to 300% | CCN(CCN(C)C)c1cc(C(=O)Nc2ccccc2C(=O)NC2CCN(C(=O)OC(C)(C)C)CC2)nc(-c2ccccc2)n1 [Compound 166, tert-butyl 4-(2-(6-((2-(dimethylamino)ethyl)(ethyl)amino)-2-phenylpyrimidine-4-carboxamido)benzamido)piperidine-1-carboxylate] |
| B (EC1.5>1 and ≦10 uM) | 150 to 300% | CCN(CCN(C)C)c1cc(C(=O)Nc2ccccc2C(=O)NC2CCCN(C(=O)OC(C)(C)C)C2)nc(-c2ccccc2)n1 (stereo not shown) [Compound 172, tert-butyl 3-(2-(6-((2-(dimethylamino)ethyl)(ethyl)amino)-2-phenylpyrimidine-4-carboxamido)benzamido)piperidine-1-carboxylate] |
| A (EC1.5≦1 uM) | ≥ 300% | CCN(CCN(C)C)c1cc(C(=O)Nc2ccccc2C(=O)Nc2ccccc2C(N)=O)nc(-c2ccccc2)n1 [Compound 160, N-(2-(2-carbamoylphenylcarbamoyl)phenyl)-6-((2-(dimethylamino)ethyl)(ethyl)amino)-2-phenylpyrimidine-4-carboxamide] |
| A (EC1.5≦1 uM) | ≥ 300% | CC(=O)c1ccccc1NC(=O)c1cc(NC2CCN(C)CC2)nc(-c2ccccc2)n1 [Compound 143] |
| A (EC1.5≦1 uM) | ≥ 300% | O=C(Nc1ccccc1-c1nncs1)c1cc(NC(CO)CO)nc(-c2ccccc2)n1 [Compound 99] |
